From patent US20240254220A1, “COMBINED THERAPY USING ANTI-CD300C ANTIBODY” (CentricsBio, Inc., priority 2021, published 2024)

How the values were obtained:
A549 cells = test: A549 growth inhibition by chemotherapeutic agents (concentration selection); assay type: cell-based, human; settings: A549, serial dilutions, 5 days, CCK-8
Description: First, sorafenib was dissolved in dimethyl sulfoxide.
First, gemcitabine was dissolved in dimethyl sulfoxide.
First, paclitaxel was dissolved in […].

[1] = system: A549 (human lung cancer cell line); test: A549 cell proliferation analysis, anti-CD300c antibody with chemotherapeutic agent; assay type: cell-based; settings: 5 days
Description: In order to identify the cancer cell growth inhibitory effect by combined treatment with an anti-CD300c monoclonal antibody and sorafenib, cell proliferation analysis was performed using A549 (human lung cancer cell line). Into a 96-well plate, 20,000 cancer cells were inoculated and treated with 10 ug/mL anti-CD300c monoclonal antibody and 9 μM sorafenib, followed by incubation for 5 days. After the incubation, 10 μL of CCK-8 (DOJINDO) was added to each well, followed by incubation for 4 hours, and the absorbance was measured at 450 nm.
In order to identify the cancer cell growth inhibitory effect by combined treatment with an anti-CD300c monoclonal antibody and gemcitabine, cell proliferation analysis was performed using A549 (human lung cancer cell line). The cells were treated with the anti-CD300c antibody in combination with 1.9 μM gemcitabine for 5 days, and then 10 μL of CCK-8 (DOJINDO) was added to each well, followed by incubation for 4 hours, and the absorbance was measured at 450 nm.
In order to identify the cancer cell growth inhibitory effect by combined treatment with an anti-CD300c monoclonal antibody and paclitaxel, cell proliferation analysis was performed using A549 (human lung cancer cell line). The cells were treated with the anti-CD300c monoclonal antibody in combination with paclitaxel and incubated for 5 days. Thereafter, 10 μL of CCK-8 (DOJINDO) was added to each well, followed by incubation for 4 hours, and the absorbance was measured at 450 nm.

[2] = system: MKN45, IM95, HT-29, A549, HCT116, MDA-MB-231, HepG2 cancer cell lines; test: Cancer cell apoptosis resistance (rapamycin, Annexin V / PI fluorescence); assay type: cell-based, human; settings: 8 hours treatment, then rapamycin 48 hours
Text: (§1) In order to identify whether the combined treatment with an anti-CD300c monoclonal antibody and a chemotherapeutic agent can inhibit cancer cell apoptosis resistance, MKN45 (human gastric cancer cell line), IM95 (human gastric cancer cell line), HT-29 (human colon cancer cell line), A549 (human lung cancer cell line), HCT116 (human colon cancer cell line), MDA-MB-231 (human breast cancer cell line), and HepG2 (human liver cancer cell line) were used. Each type of cancer cells were inoculated at 1×10^4 into a 96-well plate and incubated for 16 hours. The incubated cells were treated with an anti-CD300c monoclonal antibody and a chemotherapeutic agent in combination for 8 hours, and then treated with rapamycin for 48 hours. The degree of survival of cancer cells was identified by fluorescence analysis using Annexin V and propidium iodide (PI).
as §1, with “gemcitabine” for “a chemotherapeutic agent”, “The incubated cells were treated with an anti-CD300c monoclonal antibody and a chemotherapeutic agent in combination for 8 hours, and then treated with rapamycin for 48 hours.” left out
In order to identify whether the combined treatment with an anti-CD300c monoclonal antibody and paclitaxel can inhibit cancer cell apoptosis resistance, MKN45 (human gastric cancer cell line), IM95 (human gastric cancer cell line), HT-29 (human colon cancer cell line), A549 (human lung cancer cell line), HCT116 (human colon cancer cell line), MDA-MB-231 (human breast cancer cell line), and HepG2 (human liver cancer cell line) were used. […] The degree of survival of cancer cells was identified by fluorescence analysis using Annexin V and propidium iodide (PI).

[3] = system: MKN45, IM95, HT-29, A549, HCT116, MDA-MB-231, HepG2 cancer cell lines; test: Cancer cell migration/infiltration (scratch wound); assay type: cell-based, human; settings: 24 hours
Text: (§2) In order to identify the cancer cell migration/infiltration inhibitory effect by the combined treatment with an anti-CD300c monoclonal antibody and sorafenib, MKN45 (human gastric cancer cell line), IM95 (human gastric cancer cell line), HT-29 (human colon cancer cell line), A549 (human lung cancer cell line), HCT116 (human colon cancer cell line), MDA-MB-231 (human breast cancer cell line), and HepG2 (human liver cancer cell line) were used. Into a 6-well plate, 1×10^5 cancer cells were inoculated and incubated for 16 hours, and then each well was wounded by scratching with a pipette tip. The detached cells were removed by washing with medium, and then treated with an anti-CD300c monoclonal antibody for 8 hours. Thereafter, observation was performed for 24 hours. On the basis of the area of the wound formed by scratching with the pipette tip, the migration distance of cancer cells was measured, and this distance was calculated as a percentage (%) to identify the degree of migration inhibition.
as §2, with “migration/invasion” for “migration/infiltration”, “gemcitabine, MKN45,” for “sorafenib, MKN45 (human gastric cancer cell line),”, “inhibition. […]” for “inhibition.”

[4] = system: CT26 cells (mouse colon cancer cell line); test: In vivo anticancer effect in huCD34-NSG mice bearing CT26 cells; parameters: species or system humanized mouse models (huCD34-NSG mice); settings: antibody 25 mg/kg, chemotherapeutic agents 10 mg/kg, i.p. twice a week, four times
Description: In order to identify the anticancer effect under in vivo conditions by the combined treatment with an anti-CD300c monoclonal antibody and a chemotherapeutic agent, human solid tumor xenograft models were prepared by subcutaneous injection of 1×10^6 CT26 cells (mouse colon cancer cell line) to humanized mouse models (huCD34-NSG mice). From 3 days after the administration of cancer cells, the mice were divided into a group administered 25 mg/kg anti-CD300c monoclonal antibody alone, groups administered the chemotherapeutic agents sorafenib, gemcitabine, and paclitaxel at 10 mg/kg for each, groups administered an anti-CD300c monoclonal antibody and chemotherapeutic agents, and a non-administered group. After the intraperitoneal administration with the anti-CD300c monoclonal antibody and each of the chemotherapeutic agents alone or in combination twice a week, a total of four times, the solid tumor tissue was isolated from the mice to measure the size thereof to identify the therapeutic effect of the anti-CD300c monoclonal antibody alone and the effects of the combined administration with existing chemotherapeutic agents.

Row | SMILES | cancer cell growth inhibitory effect (A549 cells) | inhibition at 1.9 µM ([1]; Homo sapiens, 120 h, A549, gemcitabine 1.9 μM, read-out: cancer cell growth inhibitory rate) [%] | increase in MFI compared with hIgG1 isotype control group ([2]; gemcitabine experiment) [%] | degree of migration inhibition ([3]; gemcitabine experiment) [%] | tumor inhibition rate [4] [%] | cancer cell growth inhibitory rate ([1]; A549, paclitaxel experiment) [%] | increase in MFI compared with hIgG1 isotype control group ([2]; paclitaxel experiment) [%] | degree of migration inhibition ([3]; paclitaxel experiment) [%] | inhibition at 9 µM ([1]; Homo sapiens, 120 h, A549, antibody 10 ug/mL, sorafenib 9 μM, read-out: cancer cell growth inhibitory rate) [%] | increase in MFI compared with hIgG1 isotype control group ([2]; sorafenib experiment) [%] | degree of migration inhibition ([3]; sorafenib experiment) [%]
1 | Nc1ccn([C@@H]2O[C@H](CO)[C@@H](O)C2(F)F)c(=O)n1 [gemcitabine] | concentration-dependent cancer cell growth inhibitory effect | 38 | 21 | 28 | 25 |  |  |  |  |  | 
2 | CC(=O)O[C@H]1C(=O)[C@@]2(C)[C@H]([C@H](OC(=O)c3ccccc3)[C@]3(O)C[C@H](OC(=O)[C@H](O)[C@@H](NC(=O)c4ccccc4)c4ccccc4)C(C)=C1C3(C)C)[C@]1(OC(C)=O)CO[C@@H]1C[C@@H]2O [paclitaxel] | concentration-dependent cancer cell growth inhibitory effect |  |  |  | 21 | 24 | 19 | 20 |  |  | 
3 | CNC(=O)c1cc(Oc2ccc(NC(=O)Nc3ccc(Cl)c(C(F)(F)F)c3)cc2)ccn1 [sorafenib] | concentration-dependent cancer cell growth inhibitory effect |  |  |  | 22 |  |  |  | 45 | 21 | 32
